Source: PubChem BioAssay AID1963842 (Molecular Pharmacology Branch, DTP, NCI, 2024)

Test system: 677734-321-R-J1-PDC complex spheroid viability
Assay: Anticancer human tumor 677734-321-R-J1-PDC patient-derived soft tissue sarcoma cell line growth inhibition [POLQ]
Conditions: for IC50: curve of first compound; for viability, T/C: stronger effect = lower value; active means viability on the fitted dose curve at most 10% of control; inactive means the rest
Method in brief: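 Growth inhibition in 3D: complex spheroids (tumor PDC, HUVEC, MSC) treated with POLQ inhibitor combinations; where Cmax unknown, highest tested concentration 10 microM, except SN-38 at 1 microM.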

[1] = second compound 0.0316 µM, first compound 0.0316 µM
[2] = second compound 0.0316 µM, first compound 0.1 µM
[3] = second compound 0.0316 µM, first compound 0.316 µM
[4] = second compound 0.0316 µM, first compound 1 µM
[5] = second compound 0.0316 µM, first compound 3.16 µM
[6] = second compound 0.0316 µM, first compound 10 µM
[7] = second compound 0.1 µM, first compound 0.0316 µM
[8] = second compound 0.1 µM, first compound 0.1 µM
[9] = second compound 0.1 µM, first compound 0.316 µM
[10] = second compound 0.1 µM, first compound 1 µM
[11] = second compound 0.1 µM, first compound 3.16 µM
[12] = second compound 0.1 µM, first compound 10 µM
[13] = second compound 0.316 µM, first compound 0.0316 µM
[14] = second compound 0.316 µM, first compound 0.1 µM
[15] = second compound 0.316 µM, first compound 0.316 µM
[16] = second compound 0.316 µM, first compound 1 µM
[17] = second compound 0.316 µM, first compound 3.16 µM
[18] = second compound 0.316 µM, first compound 10 µM
[19] = second compound 1 µM, first compound 0.0316 µM
[20] = second compound 1 µM, first compound 0.1 µM
[21] = second compound 1 µM, first compound 0.316 µM
[22] = second compound 1 µM, first compound 1 µM
[23] = second compound 1 µM, first compound 3.16 µM
[24] = second compound 1 µM, first compound 10 µM
[25] = second compound 3.16 µM, first compound 0.0316 µM
[26] = second compound 3.16 µM, first compound 0.1 µM
[27] = second compound 3.16 µM, first compound 0.316 µM
[28] = second compound 3.16 µM, first compound 1 µM
[29] = second compound 3.16 µM, first compound 3.16 µM
[30] = second compound 3.16 µM, first compound 10 µM
[31] = second compound 10 µM, first compound 0.0316 µM
[32] = second compound 10 µM, first compound 0.1 µM
[33] = second compound 10 µM, first compound 0.316 µM
[34] = second compound 10 µM, first compound 1 µM
[35] = second compound 10 µM, first compound 3.16 µM
[36] = second compound 10 µM, first compound 10 µM
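Further: spheroids exposed to compounds for one week.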
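Wherever viability, T/C is given: 100% = vehicle DMSO treated spheroids.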

C=CC(=O)N1CCN(c2nc(=O)n(-c3c(C)ccnc3C(C)C)c3nc(-c4c(O)cccc4F)c(F)cc23)C(C)C1 (centres undefined) + Cc1cccc(N(C)C(=O)C2C(O)CCN2c2nc(C)cc(C(F)(F)F)c2C#N)c1
inactive: viability, T/C [1] 108% | viability, T/C [2] 99.5% | viability, T/C [3] 103% | viability, T/C [4] 104% | viability, T/C [5] 110% | viability, T/C [6] 88% | viability, T/C [7] 105% | viability, T/C [8] 104% | viability, T/C [9] 101% | viability, T/C [10] 107% | viability, T/C [11] 102% | viability, T/C [12] 93.4% | viability, T/C [13] 106% | viability, T/C [14] 105% | viability, T/C [15] 103% | viability, T/C [16] 103% | viability, T/C [17] 113% | viability, T/C [18] 92% | viability, T/C [19] 109% | viability, T/C [20] 94.9% | viability, T/C [21] 107% | viability, T/C [22] 104% | viability, T/C [23] 108% | viability, T/C [24] 85.5% | viability, T/C [25] 101% | viability, T/C [26] 100% | viability, T/C [27] 105% | viability, T/C [28] 108% | viability, T/C [29] 108% | viability, T/C [30] 81.8% | viability, T/C [31] 105% | viability, T/C [32] 100% | viability, T/C [33] 98.6% | viability, T/C [34] 103% | viability, T/C [35] 81.1% | viability, T/C [36] 80.1%
> 10000 nM: IC50 (second compound 0.0316 µM) | IC50 (second compound 0.1 µM) | IC50 (second compound 0.316 µM) | IC50 (second compound 1 µM) | IC50 (second compound 3.16 µM) | IC50 (second compound 10 µM)

CC1COCCN1c1cc(-c2ccnn2C)c2ccnc(-c3ccn[nH]3)c2n1 (centres undefined) + Cc1cccc(N(C)C(=O)C2C(O)CCN2c2nc(C)cc(C(F)(F)F)c2C#N)c1
161 nM: IC50 (second compound 0.0316 µM)
110 nM: IC50 (second compound 10 µM)
125 nM: IC50 (second compound 3.16 µM)
156 nM: IC50 (second compound 1 µM)
inactive: viability, T/C [1] 100% | viability, T/C [2] 67.6% | viability, T/C [3] 24.8% | viability, T/C [4] 21.6% | viability, T/C [5] 18.2% | viability, T/C [6] 14.3% | viability, T/C [7] 88.9% | viability, T/C [8] 70.9% | viability, T/C [9] 27.8% | viability, T/C [10] 17.1% | viability, T/C [11] 17.4% | viability, T/C [12] 16.6% | viability, T/C [13] 98.1% | viability, T/C [14] 64.9% | viability, T/C [15] 24.2% | viability, T/C [16] 19.6% | viability, T/C [17] 20.3% | viability, T/C [18] 16.3% | viability, T/C [19] 99.9% | viability, T/C [20] 65.5% | viability, T/C [21] 25.4% | viability, T/C [22] 18.7% | viability, T/C [23] 18.9% | viability, T/C [24] 15.8% | viability, T/C [25] 90.7% | viability, T/C [26] 56% | viability, T/C [27] 25.2% | viability, T/C [28] 19.1% | viability, T/C [29] 16.5% | viability, T/C [30] 18.6% | viability, T/C [31] 89.7% | viability, T/C [32] 52.5% | viability, T/C [33] 21.7% | viability, T/C [34] 17.2% | viability, T/C [35] 18.4% | viability, T/C [36] 16%
153 nM: IC50 (second compound 0.316 µM)
175 nM: IC50 (second compound 0.1 µM)
